Results taken from the OPERA property sets (Mansouri et al. 2018).

Point of comparison: `COC(=O)C1(S(=O)(=O)c2ccc([N+](=O)[O-])cc2)CC1`, logP 1.33. Against it:
- CC(C)OC(=O)C1(S(=O)(=O)c2ccc(Cl)cc2)CC1 — higher, 2.64
- COC(=O)C1(S(=O)(=O)c2ccc(C)cc2)CC1 — higher, 1.77
- COC(=O)C1(S(=O)(=O)c2ccc(Br)cc2)CCCCC1 — higher, 2.94
- COC(=O)C1(S(=O)(=O)c2ccc(Br)cc2)CC1 — higher, 2.32
- CC(C)(C)OC(=O)C1(S(=O)(=O)c2ccc(Cl)cc2)CC1 — higher, 2.68
- COC(=O)C1(S(=O)(=O)c2ccccc2)CCCCC1 — higher, 2.3
- CC(C)OC(=O)C1(S(=O)(=O)c2ccc(Cl)cc2)CCCC1 — higher, 3.16
- COC(=O)C1(S(=O)(=O)c2ccc(Cl)cc2)CCC1 — higher, 2.28
- Cc1ccc(S(=O)(=O)C2(C(=O)OC(C)C)CCC2)cc1 — higher, 2.78
- CCOC(=O)C1(S(=O)(=O)c2ccc(C)cc2)CCC1 — higher, 2.31
- COC(=O)C1(S(=O)(=O)c2ccccc2)CCCC1 — higher, 1.98
- Cc1ccc(S(=O)(=O)C2(C(=O)OC(C)C)CC2)cc1 — higher, 2.52
- CC(C)OC(=O)C1(S(=O)(=O)c2ccc([N+](=O)[O-])cc2)CCCCCC1 — higher, 3.41
- COC(=O)C1(S(=O)(=O)c2ccc(Br)cc2)CCC1 — higher, 2.45
- CC(C)OC(=O)C1(S(=O)(=O)c2ccc([N+](=O)[O-])cc2)CCC1 — higher, 2.36
- CC(C)OC(=O)C1(S(=O)(=O)c2ccc([N+](=O)[O-])cc2)CCCCC1 — higher, 2.84
- COC(=O)C1(S(=O)(=O)c2ccccc2)CC1 — within 0.2 log units, 1.43
- CCOC(=O)C1(S(=O)(=O)c2ccc(C)cc2)CC1 — higher, 2.23
- CC(C)OC(=O)C1(S(=O)(=O)c2ccc([N+](=O)[O-])cc2)CC1 — higher, 2.05
- COC(=O)C1(S(=O)(=O)c2ccccc2)CCC1 — higher, 1.63
- COC(=O)C1(S(=O)(=O)c2ccc(Br)cc2)CCCC1 — higher, 2.73
- COC(=O)C1(S(=O)(=O)c2ccc(Cl)cc2)CC1 — higher, 2.03
